Measured values published in ChEMBL document CHEMBL4196193, “Calothrixamides A and B from the Cultured Cyanobacterium Calothrix sp. UIC 10520” (J Nat Prod, 2018).
The source made the active and inactive calls. The calls are words filed in the database; no cut-off is given here.

Assays:
Format in all cases: functional, cell-based
MDA-MB-435 [1] = test: Cytotoxicity against human MDA-MB-435 cells at 10 uM after 72 hrs by CellTiter 96 AQueous One Solution Cell Proliferation Assay
MDA-MB-231 [2] = test: Cytotoxicity against human MDA-MB-231 cells at 10 uM after 72 hrs by CellTiter 96 AQueous One Solution Cell Proliferation Assay
OVCAR-3 [3] = test: Cytotoxicity against human OVCAR3 cells at 10 uM after 72 hrs by CellTiter 96 AQueous One Solution Cell Proliferation Assay
MDA-MB-435 [4] = test: Cytotoxicity against human MDA-MB-435 cells after 72 hrs by CellTiter 96 AQueous One Solution Cell Proliferation Assay; settings: MDA-MB-435, 72 h
MDA-MB-231 [5] = test: Cytotoxicity against human MDA-MB-231 cells after 72 hrs by CellTiter 96 AQueous One Solution Cell Proliferation Assay; settings: MDA-MB-231, 72 h
OVCAR-3 [6] = test: Cytotoxicity against human OVCAR3 cells after 72 hrs by CellTiter 96 AQueous One Solution Cell Proliferation Assay; settings: OVCAR-3, 72 h

Row | Structure (SMILES) | Activity (MDA-MB-435 [1]) | Activity (MDA-MB-231 [2]) | Activity (OVCAR-3 [3]) | IC50 (MDA-MB-435 [4]) | IC50 (MDA-MB-231 [5]) | IC50 (OVCAR-3 [6])
1 | C=CCCCC[C@H](C)[C@@H](CCCCCCCCC(C)/C=C\C=C(/C)C(=O)N[C@@H](C)CO)OC(N)=O (some centres undefined) | inactive | inactive | inactive |  |  | 
2 | CCCCCC[C@H](C)[C@@H](CCCCCCCCC(C)/C=C\C=C(/C)C(=O)N[C@@H](C)CO)OC(N)=O (some centres undefined) | inactive | inactive | inactive |  |  | 
3 | CC(=O)O[C@H]1C(=O)[C@@]2(C)[C@H]([C@H](OC(=O)c3ccccc3)[C@]3(O)C[C@H](OC(=O)[C@H](O)[C@@H](NC(=O)c4ccccc4)c4ccccc4)C(C)=C1C3(C)C)[C@]1(OC(C)=O)CO[C@@H]1C[C@@H]2O [PACLITAXEL] |  |  |  | 3.1 nM | 2.6 nM | 7.5 nM
